Experiments:
[1] = tested on: fat-laden hepatocytes from obese Zucker (fa/fa) rats; assay: Apoptosis by DAPI fluorescence microscopy of isolated hepatocytes exposed to GCDC; type: cell-based, rat; settings: fat-laden cells, 100 μM GCDC × 3 hours
Description: (§1) Briefly, 8-week-old obese Zucker (fa/fa) rats (Zucker rat model of hepatic steatosis) and lean (Fa/?) litter-mates were sacrificed. Liver blood tests and liver histology were obtained, and hepatocytes isolated by the recirculating collagenase perfusion technique. Initial trypan blue exclusion exceeded 94%. Cells were incubated in suspension with glycochenodeoxycholic acid (GCDC) (0,-1000 μM) in Krebs-Ringer-HEPES for 4 hours. Aliquots of cells were removed hourly for determination of: (1) hydroperoxide generation measured by fluorescence of dichlorofluororescin diacetate (DCF-DA) that was preloaded into hepatocytes; (2) %LDH release as a measure of cell necrosis; and (3) DAPI fluorescence microscopy of fixed cells to quantify apoptosis. Liver histology was quantitated using a grading system.

[2] = tested on: lean hepatocytes from lean (Fa/?) Zucker litter-mates; assay: as above; type: cell-based, rat; settings: lean cells, 100 μM GCDC × 3 hours
Description: as §1

[3] = tested on: fat-laden hepatocytes from obese Zucker (fa/fa) rats; assay: Cell necrosis (%LDH release) of isolated hepatocytes exposed to GCDC; type: cell-based, rat; settings: fat-laden cells, 100 μM GCDC × 3 hours
Description: as §1

[4] = tested on: lean hepatocytes from lean (Fa/?) Zucker litter-mates; assay: as above; type: cell-based, rat; settings: lean cells, 100 μM GCDC × 3 hours
Description: as §1

[5] = tested on: fat-laden hepatocytes from obese Zucker (fa/fa) rats; assay: Hydroperoxide generation (DCF-DA fluorescence) in isolated hepatocytes exposed to GCDC; type: cell-based, rat; settings: fat-laden cells exposed to GCDC, compared with lean cells
Description: as §1

[6] = tested on: fat-laden hepatocytes; assay: Protection of fat-laden liver cells exposed to bile acids; type: cell-based, rat; settings: fat-laden liver cells exposed to relatively low concentrations of bile acids
Text: The antioxidants in this mixture were chosen for the following scientific reasons. […] Briefly, fat-laden hepatocytes were isolated from the Zucker rat model of hepatic steatosis and from lean littermate Zucker rats. […] Without being bound by theory, the present inventor believes that the fatty liver is more prone to hepatocyte necrosis and thus is at risk for severe injury from minor and major insults. […] Studies from the present inventor's laboratory have shown that the effect of vitamin E is probably mediated through reduction of free radical production from mitochondria (Yerushalmi et al., Hepatology 2001; 33:616-26, incorporated herein by reference in its entirety).

[7] = tested on: children with NASH; settings: oral vitamin E 400 to 1200 IU per day, during therapy; cited from earlier work
[8] = tested on: isolated human liver mitochondria; assay: Protection of isolated liver mitochondria against toxic bile acids
Text: (§2) Beta carotene and other carotenoids also function as antioxidants in tissues with low oxygen content (such as the liver) and the present inventor has shown beta carotene to have a protective role in hepatic mitochondria that prevents processes that generate oxygen free radicals (unpublished data). […] (Sokol et al., Hepatology 2001;34(2):277A, incorporated herein by reference in its entirety).

[9] = tested on: isolated rat liver mitochondria; assay: as above
Text: as §2

Which results are given for `CC(CCC(=O)NCC(=O)O)C1CCC2C3C(O)CC4CC(O)CCC4(C)C3CCC12C` (centres unmarked) [GCDC, glycochenodeoxycholic acid]?
apoptosis [1]: 8%; apoptosis [2]: 31%; necrosis (%LDH release) [3]: 54%; necrosis (%LDH release) [4]: 24%; generation of hydroperoxides [5]: trend was present towards increased generation of hydroperoxides

With `Cc1c(C)c2c(c(C)c1O)CC[C@@](C)(CCC[C@H](C)CCC[C@H](C)CCCC(C)C)O2` [alpha tocopherol] as the compound, how does the “oxidative stress and hepatocyte cell death” value [6] read?
The value was “will prevent oxidative stress and hepatocyte cell death”.

And the “serum AST and ALT” value [7]?
Its value is “reduced”.

Which results are given for `CC1=C(/C=C/C(C)=C/C=C/C(C)=C/C=C/C=C(C)/C=C/C=C(C)/C=C/C2=C(C)CCCC2(C)C)C(C)(C)CCC1` [beta carotene]?
mitochondrial swelling and injury induced by toxic bile acids [8]: protects the mitochondria from swelling and injury; production of free radicals ([8]; toxic bile acids): markedly diminishes the production of free radicals; mitochondrial swelling and injury induced by toxic bile acids [9]: protects the mitochondria from swelling and injury; production of free radicals ([9]; toxic bile acids): markedly diminishes the production of free radicals

— patent publication US6596762B2, “Antioxidant compositions and use for treatment of hepatic steatosis and steatohepatitis” (The Regents of The University of Colorado, priority 2001, dated 2003)
